Laboratory results as given in US20230079045A1 (priority 2019, published 2023).

System: IFV A/PR/8/34
Assay: cytopathic effect (CPE) antiviral test in MDCK cells, IFV A/PR/8/34
Assay type: cell-based, influenza virus
Conditions: unidentified influenza virus, PR/8, MDCK, 120 h, read-out: EC50(IFV A/PR/8/34)

**Q.** For CC(C)(F)C(=O)Nc1ccc2oc(-c3ccnc(C(=O)N4CCC(C(c5ccccc5)n5nnc(C(F)F)n5)CC4)c3)nc2c1 (racemic) [Compound 164, (R/S)—N-(2-(2-(4-((5-(difluoromethyl)-2H-tetrazol-2-yl)(phenyl)methyl)piperidine-1-carbonyl)pyridin-4-yl)benzo[d]oxazol-5-yl)-2-fluoro-2-methylpropanamide], which EC50 is on record?
**A.** The EC50 was 13 nM.

**Q.** Cn1cc(-c2ccc3oc(-c4ccnc(C(=O)N5CCN(C(c6ccccc6)c6nnn(C(F)F)n6)CC5)c4)cc3c2)cn1 (racemic) [Compound 165, (R/S)-(4-((2-(difluoromethyl)-2H-tetrazol-5-yl)(phenyl)methyl)piperazin-1-yl)(4-(5-(1-methyl-1H-pyrazol-4-yl)benzofuran-2-yl)pyridin-2-yl)methanone] was tested. Which EC50 did it give?
**A.** The EC50 was 10 nM.

**Q.** Which EC50 does the source give for Cn1cncc1-c1ccc2oc(-c3ccnc(C(=O)N4CCC(C(c5ccccc5)n5nnc(C(F)F)n5)CC4)c3)nc2c1 (racemic) [Compound 166, (R/S)-(4-((5-(difluoromethyl)-2H-tetrazol-2-yl)(phenyl)methyl)piperidin-1-yl)(4-(5-(1-methyl-1H-imidazol-5-yl)benzo[d]oxazol-2-yl)pyridin-2-yl)methanone] here?
**A.** The EC50 was 6 nM.

**Q.** With Cc1nnn(C(c2ccccc2)C2CCN(C(=O)c3cc(-c4nc5cc(-c6cncn6C)ccc5o4)ccn3)CC2)n1 (racemic) [Compound 167, (R/S)-(4-(5-(1-methyl-1H-imidazol-5-yl)benzo[d]oxazol-2-yl)pyridin-2-yl)(4-((5-methyl-2H-tetrazol-2-yl)(phenyl)methyl)piperidin-1-yl)methanone] as the compound, how does the EC50 read?
**A.** The EC50 was 5 nM.

**Q.** Which EC50 does the source give for O=C(c1cc(-c2nc3cc(-c4cn(C(F)F)cn4)ccc3o2)ccn1)N1CCN(C(c2ccccc2)c2nnn(C(F)F)n2)CC1 (racemic) [Compound 170, (R/S)-(4-(5-(1-(difluoromethyl)-1H-imidazol-4-yl)benzo[d]oxazol-2-yl)pyridin-2-yl)(4-((2-(difluoromethyl)-2H-tetrazol-5-yl)(phenyl)methyl)piperazin-1-yl)methanone] here?
**A.** Its EC50 is 7 nM.

**Q.** With O=C(c1cc(-c2nc3cc(-c4cncn4C(F)F)ccc3o2)ccn1)N1CCN(C(c2ccccc2)c2nnn(C(F)F)n2)CC1 (racemic) [Compound 171, (R/S)-(4-(5-(1-(difluoromethyl)-1H-imidazol-5-yl)benzo[d]oxazol-2-yl)pyridin-2-yl)(4-((2-(difluoromethyl)-2H-tetrazol-5-yl)(phenyl)methyl)piperazin-1-yl)methanone] as the compound, how does the EC50 read?
**A.** The EC50 was 5 nM.

**Q.** Which EC50 does the source give for O=C(c1cc(-c2nc3cc(-c4cnoc4)ccc3o2)ccn1)N1CCN(C(c2ccccc2)c2nnn(C(F)F)n2)CC1 (racemic) [Compound 174, (R/S)-(4-((2-(difluoromethyl)-2H-tetrazol-5-yl)(phenyl)methyl)piperazin-1-yl)(4-(5-(isoxazol-4-yl)benzo[d]oxazol-2-yl)pyridin-2-yl)methanone] here?
**A.** Its EC50 is 15 nM.

**Q.** How did the EC50 turn out when Cc1nnn(C(c2ccccc2)C2CCN(C(=O)c3cc(-c4nc5cc(-c6ccn(C)n6)ccc5o4)ccn3)CC2)n1 (racemic) [Compound 183, (R/S)-(4-(5-(1-methyl-1H-pyrazol-3-yl)benzo[d]oxazol-2-yl)pyridin-2-yl)(4-((5-methyl-2H-tetrazol-2-yl)(phenyl)methyl)piperidin-1-yl)methanone] was run?
**A.** Its EC50 is 18 nM.

**Q.** With Cc1nnn(C(c2ccccc2)C2CCN(C(=O)c3cc(-c4cc5cc(-c6cncn6C)ccc5o4)ccn3)CC2)n1 (racemic) [Compound 186, (R/S)-(4-(5-(1-methyl-1H-imidazol-5-yl)benzofuran-2-yl)pyridin-2-yl)(4-((5-methyl-2H-tetrazol-2-yl)(phenyl)methyl)piperidin-1-yl)methanone] as the compound, how does the EC50 read?
**A.** Its EC50 is 2 nM.

**Q.** For Cc1nnn(C(c2ccccc2)C2CCN(C(=O)c3cc(-c4nc5cc(-c6cnn(C)c6C)ccc5o4)ccn3)CC2)n1 (racemic) [Compound 187, (R/S)-(4-(5-(1,5-dimethyl-1H-pyrazol-4-yl)benzo[d]oxazol-2-yl)pyridin-2-yl)(4-((5-methyl-2H-tetrazol-2-yl)(phenyl)methyl)piperidin-1-yl)methanone], which EC50 is on record?
**A.** Its EC50 is 6 nM.

**Q.** With Cc1cn(-c2ccc3oc(-c4ccnc(C(=O)N5CCC(C(c6ccccc6)n6nnc(C)n6)CC5)c4)nc3c2)cn1 (racemic) [Compound 189, (R/S)-(4-(5-(4-methyl-1H-imidazol-1-yl)benzo[d]oxazol-2-yl)pyridin-2-yl)(4-((5-methyl-2H-tetrazol-2-yl)(phenyl)methyl)piperidin-1-yl)methanone] as the compound, how does the EC50 read?
**A.** Its EC50 is 11 nM.

**Q.** [2H]C([2H])([2H])c1nnn(C(c2ccccc2)C2CCN(C(=O)c3cc(-c4nc5cc(NC(=O)[C@@H]6C[C@@H]6F)ccc5o4)ccn3)CC2)n1 (mixture of isomers) [Compound 201, (1S,2S)-2-fluoro-N-(2-(2-(4-((R/S)-(5-(methyl-d3)-2H-tetrazol-2-yl)(phenyl)methyl)piperidine-1-carbonyl)pyridin-4-yl)benzo[d]oxazol-5-yl)cyclopropane-1-carboxamide] was tested. Which EC50 did it give?
**A.** Its EC50 is 3.6 nM.

**Q.** Which EC50 does the source give for O=C(c1cc(-c2nc3cc(-c4cncn4C(F)F)ccc3o2)ccn1)N1CCC(C(c2ccccc2)n2nnc(CO)n2)CC1 (racemic) [Compound 206, (R/S)-(4-(5-(1-(difluoromethyl)-1H-imidazol-5-yl)benzo[d]oxazol-2-yl)pyridin-2-yl)(4-((5-(hydroxymethyl)-2H-tetrazol-2-yl)(phenyl)methyl)piperidin-1-yl)methanone] here?
**A.** Its EC50 is 4.5 nM.

**Q.** How did the EC50 turn out when O=C(c1cc(-c2nc3cc(-c4cn(C(F)F)cn4)ccc3o2)ccn1)N1CCC(C(c2ccccc2)n2nnc(CO)n2)CC1 (racemic) [Compound 207, (R/S)-(4-(5-(1-(difluoromethyl)-1H-imidazol-4-yl)benzo[d]oxazol-2-yl)pyridin-2-yl)(4-((5-(hydroxymethyl)-2H-tetrazol-2-yl)(phenyl)methyl)piperidin-1-yl)methanone] was run?
**A.** The EC50 was 1.3 nM.

**Q.** How did the EC50 turn out when Cc1nnn(C(c2ccccc2)C2CCN(C(=O)c3cc(-c4nc5ccc(NC(=O)[C@@H]6C[C@@H]6F)cc5o4)ccn3)CC2)n1 (single isomer, unassigned) [Compound 134] was run?
**A.** Its EC50 is 4 nM.

**Q.** For Cc1nnn(C(c2ccc(F)cc2)C2CCN(C(=O)c3cc(-c4nc5cc(NC(=O)[C@@H]6C[C@@H]6F)ccc5o4)ccn3)CC2)n1 (single isomer, unassigned) [Compound 202], which EC50 is on record?
**A.** Its EC50 is 2.6 nM.

**Q.** Which EC50 does the source give for [2H]C([2H])([2H])C(C(=O)Nc1ccc2oc(-c3ccnc(C(=O)N4CCN([C@H](c5ccccc5)c5nnn(C(F)F)n5)CC4)c3)cc2c1)C([2H])([2H])[2H] [Compound 136, 3,3,3-trideuterio-N-[2-[2-[4-[(R)-[2-(difluoromethyl)tetrazol-5-yl]-phenyl-methyl]piperazine-1-carbonyl]-4-pyridyl]benzofuran-5-yl]-2-(trideuteriomethyl)propanamide] here?
**A.** The EC50 was 8 nM.

**Q.** Which EC50 does the source give for Cc1nnn([C@@H](c2ccccc2)C2CCN(C(=O)c3cc(-c4cc5cc(NC(=O)[C@@H]6C[C@@H]6F)ccc5o4)ccn3)CC2)n1 [Compound 139, (1S,2S)-2-fluoro-N-(2-(2-(4-((R)-(5-methyl-2H-tetrazol-2-yl)(phenyl)methyl)piperidine-1-carbonyl)pyridin-4-yl)benzofuran-5-yl)cyclopropanecarboxamide] here?
**A.** Its EC50 is 4 nM.

**Q.** For [2H]C([2H])([2H])n1nnc(C(c2ccccc2)N2CCN(C(=O)c3cc(-c4nc5cc(NC(=O)[C@@H]6C[C@@H]6F)ccc5o4)ccn3)CC2)n1 (stereo partly drawn) [Compound 178, (1S,2S)-2-fluoro-N-(2-(2-(4-((R)-(2-Deuteratedmethyl-2H-tetrazol-5-yl)(phenyl)methyl)piperazine-1-carbonyl)pyridin-4-yl)benzo[d]oxazol-5-yl)cyclopropanecarboxamide], which EC50 is on record?
**A.** Its EC50 is 7 nM.

**Q.** How did the EC50 turn out when Cc1nnn([C@@H](c2ccsc2)C2CCN(C(=O)c3cc(-c4nc5cc(NC(=O)[C@@H]6C[C@@H]6F)ccc5o4)ccn3)CC2)n1 [Compound 203, (1S,2S)-2-fluoro-N-(2-(2-(4-((R)-(5-methyl-2H-tetrazol-2-yl)(thiophen-3-yl)methyl)piperidine-1-carbonyl)pyridin-4-yl)benzo[d]oxazol-5-yl)cyclopropanecarboxamide] was run?
**A.** Its EC50 is 19 nM.

**Q.** How did the EC50 turn out when [2H]c1c([2H])c([2H])c([C@@H](C2CCN(C(=O)c3cc(-c4nc5cc(NC(=O)[C@@H]6C[C@@H]6F)ccc5o4)ccn3)CC2)n2nnc(C)n2)c([2H])c1[2H] [Compound 205, (1S,2S)-2-fluoro-N-[2-[2-[4-[(R)-(5-methyltetrazol-2-yl)-(2,3,4,5,6-pentadeuteriophenyl)methyl]piperidine-1-carbonyl]-4-pyridyl]-1,3-benzoxazol-5-yl]cyclopropanecarboxamide] was run?
**A.** The EC50 was 5.5 nM.

**Q.** How did the EC50 turn out when O=C(c1cc(-c2nc3cc(-c4cn(C(F)F)cn4)ccc3o2)ccn1)N1CCC(C(c2ccccc2)n2nnc(CO)n2)CC1 (centres unmarked) [Compound 217, (4-(5-(1-(difluoromethyl)-1H-imidazol-4-yl)benzo[d]oxazol-2-yl)pyridin-2-yl)(4-((5-(hydroxymethyl)-2H-tetrazol-2-yl)(phenyl)methyl)piperidin-1-yl)methanone] was run?
**A.** Its EC50 is 3.3 nM.

System: IFVA/Mal/302/54
Assay: cytopathic effect (CPE) antiviral test in MDCK cells, IFVA/Mal/302/54
Assay type: cell-based, influenza virus
Conditions: unidentified influenza virus, MDCK, 120 h, read-out: EC50(IFVA/Mal/302/54), MDCK cells, CPE method, CCK-8 cell viability, 5 days

**Q.** For O=C(Nc1ccc2oc(-c3ccnc(C(=O)N4CCN(C(c5ccccc5)c5nnn(C(F)F)n5)CC4)c3)nc2c1)[C@H]1C[C@@H]1F (mixture of isomers) [Compound 95, (1R,2S)—N-(2-(2-(4-((R/S)-(2-(difluoromethyl)-2H-tetrazol-5-yl)(phenyl)methyl)piperazine-1-carbonyl)pyridin-4-yl)benzo[d]oxazol-5-yl)-2-fluorocyclopropane-1-carboxamide], which EC50 is on record?
**A.** Its EC50 is 10 nM.

**Q.** With CC(=O)Nc1ccc2oc(-c3ccnc(C(=O)N4CCN(C(c5ccccc5)c5nnn(C)n5)[C@H](C)C4)c3)nc2c1 (mixture of isomers) [Compound 16a, N-(2-(2-((3R)-3-methyl-4-((2-methyl-2H-tetrazol-5-yl)(phenyl)methyl)piperazine-1-carbonyl)pyridin-4-yl)benzo[d]oxazol-5-yl)acetamide] as the compound, how does the EC50 read?
**A.** Its EC50 is > 10000 nM.

System: IFVA/Weiss/43
Assay: cytopathic effect (CPE) antiviral test in MDCK cells, IFVA/Weiss/43
Assay type: cell-based, influenza virus
Conditions: unidentified influenza virus, MDCK, 120 h, read-out: EC50(IFVA/Weiss/43), MDCK cells, CPE method, CCK-8 cell viability, 5 days

**Q.** For O=C(Nc1ccc2oc(-c3ccnc(C(=O)N4CCN(C(c5ccccc5)c5nnn(C(F)F)n5)CC4)c3)nc2c1)[C@H]1C[C@@H]1F (mixture of isomers) [Compound 95, (1R,2S)—N-(2-(2-(4-((R/S)-(2-(difluoromethyl)-2H-tetrazol-5-yl)(phenyl)methyl)piperazine-1-carbonyl)pyridin-4-yl)benzo[d]oxazol-5-yl)-2-fluorocyclopropane-1-carboxamide], which EC50 is on record?
**A.** The EC50 was 17 nM.

**Q.** For CC(=O)Nc1ccc2oc(-c3ccnc(C(=O)N4CCN(C(c5ccccc5)c5nnn(C)n5)[C@H](C)C4)c3)nc2c1 (mixture of isomers) [Compound 16a, N-(2-(2-((3R)-3-methyl-4-((2-methyl-2H-tetrazol-5-yl)(phenyl)methyl)piperazine-1-carbonyl)pyridin-4-yl)benzo[d]oxazol-5-yl)acetamide], which EC50 is on record?
**A.** Its EC50 is 7160 nM.
